IC50 data for 30 compounds are collected here from ChEMBL document CHEMBL5050843, “Amide substituted thiazoles as protein secretion inhibitors” (2019).

The nature of assay [1]: Inhibition of constitutively active PR1ss-Gluc secretion in human Flp-In-T-REx-293 cells measured by Gaussia luciferase reporter gene method. It counts as functional, cell-based.
A short description of assay [2]: Inhibition of constitutively active VCAMss-Gluc secretion in human Flp-In-T-REx-293 cells measured by Gaussia luciferase reporter gene method. The class given is functional, cell-based. A general note: In a reporter assay the amount or activity of a reporter protein is the signal.

With `CC(C)(C)c1csc(NC(=O)[C@@H]2CCCO2)n1`, the IC50 in assay [1] and in assay [2] was over 25 µM each time.
Consider `CC(C)(C)c1csc(NC(=O)c2cc3cccc(Cl)c3s2)n1`, for which the IC50 in assay [1] is over 25 µM; in assay [2], 3.22 µM.
For `C=CCC(C)(C)c1csc(NC(=O)Cc2csc3ccc(Cl)cc23)n1`, in that order: over 25 µM and 0.775 µM.
As to `CC(C)(C)c1csc(NC(=O)CN2CCCCC2)n1`, the IC50 in assay [1] and in assay [2] was over 25 µM throughout.
As for `CC(C)(C)c1csc(NC(=O)c2cc3cc(-c4cccc(Cl)c4)ccc3s2)n1`, the 50% inhibitory concentration (IC50) was over 25 µM in assay [1] and 5.02 µM in assay [2].
As to `CC(C)(C)c1csc(NC(=O)Cc2csc3ccc(Br)cc23)n1`, the IC50 is over 25 µM in assay [1] and 1.4 µM in assay [2].
For `Cc1cc(C(=O)Nc2nc(C(C)(C)C)cs2)sc1C`, in that order: over 25 µM and 9.08 µM.
As to `CCOC(=O)CC(C)(C)c1csc(NC(=O)Cc2cc(Cl)cc(Cl)c2)n1`, the IC50 in assay [1] was over 25 µM; in assay [2], 8.93 µM.
The like results for `Cc1cc(C(=O)Nc2nc(C(C)(C)C)cs2)no1` were, in that order, over 80 µM and over 80 µM.
For `CC(C)(C)c1csc(NC(=O)Cc2cn(Cc3cccc(Cl)c3)c3ccc(Cl)cc23)n1`, in that order: over 25 µM and 0.464 µM.
The like results for `CC(C)(C)c1csc(NC(=O)c2ncn[nH]2)n1` were, in that order, over 25 µM and over 25 µM.
As to `CC(C)(C)c1csc(NC(=O)C2Cc3ccccc3C2)n1`, the IC50 in assay [1] is over 25 µM; in assay [2], 11.2 µM.
The like results for `CC(C)(C)c1csc(NC(=O)C2CCOCC2)n1` were, in that order, over 25 µM and over 25 µM.
The like results for `CC(C)(C)c1csc(NC(=O)C2(c3cccc(Cl)c3)CC2)n1` were, in that order, over 25 µM and 19.6 µM.
For `CC(C)(C)c1csc(NC(=O)c2scc3c2CCCC3)n1`, in that order: over 25 µM and over 25 µM.
In the case of `CC(C)(C)c1csc(NC(=O)C(C)(C)C2CCCCC2)n1`, the results for the IC50 in assay [1] and in assay [2] were over 25 µM and 9.01 µM, respectively.
On to `CC(C)(CCO)c1csc(NC(=O)Cc2cc(Cl)cc(Cl)c2)n1`, for which the IC50 in assay [1] and in assay [2] was over 25 µM each time.
Consider `CC(C)(C)c1csc(NC(=O)c2cc3cc(C4=CCCCC4)ccc3s2)n1`, for which the 50% inhibitory concentration (IC50) in assay [1] is over 25 µM; in assay [2], 16.2 µM.
Turning to `CC(C)(C)c1csc(NC(=O)Cc2ccc(Cl)cc2)n1`, the half-maximal inhibitory concentration (IC50) is over 25 µM in assay [1] and 4.88 µM in assay [2].
The like results for `Cc1ccc(C(=O)Nc2nc(C(F)(F)F)cs2)s1` were, in that order, over 25 µM and over 25 µM.
The like results for `CC(C)(C)c1csc(NC(=O)C2CCc3ccccc3C2)n1` (stereo not given) were, in that order, over 25 µM and 11.8 µM.
`CC(C)(C)c1csc(NC(=O)CC2CCCc3ccccc32)n1` (stereo not given): the values for the 50% inhibitory concentration (IC50) in assay [1] and in assay [2] were over 25 µM and 9.01 µM, respectively.
For `CC(C)(C)c1csc(NC(=O)C2(c3cccc(Cl)c3)CCCC2)n1`, in that order: over 25 µM and 8.15 µM.
Regarding `CC(C)(C)c1csc(NC(=O)c2cc3cc(C4=CCCC4)ccc3s2)n1`, the IC50 in assay [1] and in assay [2] was over 25 µM in each case.
Regarding `CC(C)(C)c1csc(NC(=O)Cc2cccc(Br)c2)n1`, the IC50 in assay [1] is over 25 µM; in assay [2], 5.71 µM.
The like results for `CC(C)(C)c1csc(NC(=O)c2cccnn2)n1` were, in that order, over 25 µM and over 25 µM.
The like results for `CC(C)(C)c1csc(NC(=O)c2cc3cc(-c4ccccc4)ccc3s2)n1` were, in that order, over 25 µM and 11 µM.
The like results for `COCCC(C)(C)c1csc(NC(=O)Cc2csc3ccc(Cl)cc23)n1` were, in that order, over 25 µM and over 25 µM.
Consider `CC(C)(C)c1csc(NC(=O)Cc2cccnc2)n1`, for which the IC50 in assay [1] and in assay [2] was over 25 µM each time.
`CC(C)(C)c1csc(NC(=O)C(C)(C)c2ccc(Cl)c(Cl)c2)n1`: the results for the IC50 in assay [1] and in assay [2] were over 25 µM and 6.49 µM, respectively.

Usually IC50 stands for the concentration at which inhibition is half-maximal. Low readings indicate inhibition by little substance, high ones a need for much substance.
